Laboratory results: US6384186B2 (priority 1995, dated 2002)
Square brackets hold non-standard residues; d marks the D form. Peptide text beside a SMILES is read from it. NMeI = CC[CH](C)[CH](NC)C(=O)O; NMeV = CN[CH](C(=O)O)C(C)C; Sar = CNCC(=O)O

Question: With CCC(C)C1NC(=O)C(C(C)C)N(C)C(=O)C(Cc2c[nH]c3ccccc23)NC(=O)CN(C)C(=O)C(C(C)CC)N(C)C(=O)C(C(C)C)NC(=O)CN(C)C(=O)C(C(C)CC)N(C)C(=O)C(C(C)C)N(C)C(=O)CN(C)C(=O)C(C(C)C)N(C)C(=O)C(C(C)C)N(C)C1=O (centres unmarked) [omphalotin] (cyclo([Sar][NMeV][NMeI][Sar]V[NMeI][Sar]W[NMeV]I[NMeV][NMeV]); configuration not given here) as the molecule, how does the Efficacy of omphalotin (Fusarium graminearum) read?
Answer: 23%

Question: What about the Efficacy of omphalotin (Pyricularia oryzae) of the same molecule?
Answer: 70%
